Results: publication PMC12410356 (International Journal for Parasitology: Drugs and Drug …, 2025)

Experiments:
[1] = test system: E. multilocularis metacestode vesicles; assay: Metacestode vesicle viability assay (ATP, CellTiter-Glo); format: cell-based, Echinococcus multilocularis
Experimental: Viability was assessed after 12 days using the same metacestode vesicles as for the PGI release assay. Triton X-100 was added to each well to a final concentration of 0.1 %. Subsequently the metacestode vesicles were broken mechanically and 50 μL of the supernatant was mixed with 50 μL of CellTiter-Glo® buffer (Promega, Dübendorf, Switzerland). Measurements were performed on a HIDEX Sense microplate reader.

[2] = test system: E. multilocularis metacestode vesicles; assay: Phosphoglucose isomerase (PGI) release assay (damage-marker release) on metacestode vesicles; format: cell-based, Echinococcus multilocularis; settings: 10 μM; for PGI d5 (relative PGI release): 5 days; for PGI d12 (relative PGI release): 12 days
[3] = overview screen, 10 μM, singlets, 12 days, relative to DMSO control
[4] = overview screen, singlets, relative to 0.1 % Triton X-100, DMSO subtracted
[5] = confirmation screen, 10 μM, triplicates, mean, 12 days
[6] = confirmation screen, triplicates, mean

| SMILES | Viability d12 (relative viability) [1, 3] | PGI d5 (relative PGI release) [2, 4] | PGI d12 (relative PGI release) [2, 4] | Viability d12 (relative viability) [1, 5] | PGI d5 (relative PGI release) [2, 6] | PGI d12 (relative PGI release) [2, 6] | Viability d12 (relative viability) ([1]; 10 µM) |
| --- | --- | --- | --- | --- | --- | --- | --- |
| O=C(Nc1ccc(F)cc1)c1nn(-c2ccccc2)c(=O)cc1Cl [MMV1578555] | 71.8821% | 4.414% | 31.7823% |  |  |  |  |
| C[C@H]1CC[C@@]2(O)C(C)(C)[C@@H]3CC[C@@]2(C)[C@H]1C3 [MMV1578556] | 153.384% | -0.5138% | -7.5984% |  |  |  |  |
| Cc1c(N)cccc1Cn1ccc(OCCc2cccs2)cc1=O [MMV1578557] | 70.6385% | -0.9531% | -14.0356% |  |  |  |  |
| CCc1oc2ccccc2c1C(=O)c1ccc(O)cc1 [MMV1578558] | 72.3877% | -2.405% | 11.8922% |  |  |  |  |
| CO[C@@]1(NC(=O)Cc2cccs2)C(=O)N2C(C(=O)O)=C(COC(N)=O)CS[C@@H]21 [MMV1578559] | 75.9823% | -1.349% | -7.289% |  |  |  |  |
| NCC(=O)Nc1ccc(-n2nc(C(F)(F)F)cc2-c2ccc3c(ccc4ccccc43)c2)cc1 [MMV1578560] | 75.9823% | 3.295% | 35.9177% |  |  |  |  |
| CCCCCCCc1[nH]c2ccccc2c(=O)c1O [MMV1578561] | 124.494% | -1.205% | -12.6441% |  |  |  |  |
| O=S(=O)(Nc1ccccc1)c1ccc(NC(=S)Nc2ccccc2)cc1 [MMV1578562] | 118.128% | -3.292% | -3.243% |  |  |  |  |
| Fc1ccc2c(/C=C/c3nnn[nH]3)c[nH]c2c1 [MMV1578563] | 20.2898% | -0.5513% | -11.8723% |  |  |  |  |
| CCc1cc(O)c(Oc2ccc(C(N)=O)cc2F)cc1F [MMV1578564] | 125.644% | 19.4124% | -2.538% |  |  |  |  |
| CSC[C@H]1CN(Cc2c[nH]c3c(N)ncnc23)C[C@@H]1O [MMV1578565] | 59.0324% | -1.805% | -12.574% |  |  |  |  |
| NC[C@H]1OB(O)c2c(OCCCO)cccc21 [MMV1578566] | 7.765% | 0.6057% | -3.009% |  |  |  |  |
| O=c1ccc2ncc(=O)n3c2n1CC3CN1CCC(NCc2cc3c(cn2)OCCC3)CC1 (stereo not drawn) [MMV1578568] | 53.1876% | -2.295% | -8.489% |  |  |  |  |
| O=C1NC(=S)N/C1=C\c1cc(Br)cc(Br)c1O [MMV1578569] | 64.4597% | 1.516% | -5.575% |  |  |  |  |
| CCC(C)NCC(O)Cn1c2ccc(Cl)cc2c2cc(Cl)ccc21 (stereo not drawn) [MMV1578570] | 22.9025% | 90.467% | 70.4859% | 94.06% | -0.08% | 0.27% |  |
| COc1cc(NC(=O)CN2C(=O)NC(c3ccccc3)(c3ccccc3)C2=O)cc(OC)c1 [MMV1578572] | 61.4538% | -1.463% | -23.3736% |  |  |  |  |
| COc1ccc(SCC(=O)N2c3ccccc3Sc3ccccc32)cc1 [MMV1578573] | 50.7662% | -3.455% | -10.5042% |  |  |  |  |
| CN(C)[C@@H]1C(=O)C(C(N)=O)=C(O)[C@@]2(O)C(=O)C3=C(O)c4c(O)c(NC(=O)CN5CCCC5)cc(F)c4C[C@H]3C[C@@H]12.Cl.Cl [MMV1578574] | 18.1189% | -1.676% | -12.2407% |  |  |  |  |
| CC(=O)O[C@H]1C[C@@]2(C)[C@@H](C[C@@H](O)[C@H]3[C@@]4(C)CC[C@@H](O)[C@@H](C)[C@@H]4CC[C@@]32C)/C1=C(\CCC=C(C)C)C(=O)O [MMV1578575] |  | 2.315% | -12.4921% |  |  |  | 144.199% |
| O=C(Cc1ccccc1F)Nc1nc2ccccc2[nH]1 [MMV1578576] | 28.1158% | 4.048% | 84.4551% | 92.12% | 0.17% | 0.0454% |  |
| O=C(NC12CC3CC(CC(C3)C1)C2)c1cc2ccccc2[nH]1 [MMV1578577] | 82.8787% | -0.2186% | -2.179% |  |  |  |  |

| SMILES | Viability d12 (relative viability) [1, 3] | PGI d5 (relative PGI release) [2, 4] | PGI d12 (relative PGI release) [2, 4] | Viability d12 (relative viability) [1, 5] | PGI d5 (relative PGI release) [2, 6] | PGI d12 (relative PGI release) [2, 6] | Viability d12 (relative viability) ([1]; 10 µM) |
| --- | --- | --- | --- | --- | --- | --- | --- |
| O=C(Nc1nnc(-c2ccccc2)o1)c1ccc(F)cc1 [MMV1578578] | 33.8998% | -0.5299% | 45.2443% |  |  |  |  |
| COc1ccc(C)cc1NC(=O)c1ccc(S(=O)(=O)N2CCCCC2)cc1 [MMV1578579] | 52.1022% | -1.553% | -13.2873% |  |  |  |  |
| CCCCOC(=O)Nc1cc2nc(C3CCCCC3)[nH]c2cc1N(CC)CC [MMV1578842] | 6.68% | 1.645% | 57.0254% | 57.98% | -0.74% | 0.24% |  |
| O=c1cc(NCCCN[C@@H]2CCOc3c(Br)cc(Br)cc32)[nH]c2ccsc12 [MMV1578884] | 55.812% | 13.7393% | 54.0946% |  |  |  |  |
| O=c1nc(N2CCN(CC3CCCCC3)CC2)sc2c([N+](=O)[O-])cc(C(F)(F)F)cc12 [MMV1578885] | 20.6104% | 15.7367% | 89.9274% | 97.20% | -0.21% | 0.0323% |  |
| c1ccc(Cn2c(-c3ccccn3)nc3ccccc32)cc1 [MMV1578886] | 16.9499% | -1.473% | 58.1597% | 94.29% | -0.18% | -0.24% |  |
| Fc1ccc2c(/C=C/c3cccnc3)c[nH]c2c1 [MMV1578889] | 96.8566% | -2.006% | 1.559% |  |  |  |  |
| O=S(=O)(Nc1cccc2cccnc12)c1ccccc1 [MMV1578890] | 2.254% | 53.5139% | 49.7638% | 68.64% | 0.50% | -0.0456% |  |
| O=C(Cn1cnc2ccccc2c1=O)Nc1ccccc1 [MMV1578891] | 139.913% | -0.325% | -3.282% |  |  |  |  |
| CCOC(=O)N1CCN(c2ccc(Cl)cc2)CC1 [MMV1578898] | 47.7603% | -0.03171% | 1.172% |  |  |  |  |
| CCCC(=O)OCCc1ccccc1 [MMV1578899] | 64.2092% | -0.4977% | -12.5447% |  |  |  |  |
| C=C(C)n1c(=O)n(Cc2ccccc2C)c2ccccc21 [MMV1579354] | 10.0196% | 29.5855% | 93.1874% | 130.19% | -0.0635% | 0.33% |  |
| O=c1cc(OCc2ccccc2)ccn1Cc1ccccc1 [MMV1579775] | 63.3743% | -1.928% | -10.779% |  |  |  |  |
| NS(=O)(=O)c1ccc(NC(=O)NC(c2ccccc2)c2ccccc2)cc1 [MMV1579776] | 8.5167% | -0.6102% | 61.5508% | 80.00% | -0.15% | -0.30% |  |
| O=[N+]([O-])c1cn(Cc2nc(O)nc(O)c2Br)cn1 [MMV1579777] | 93.1599% | -0.845% | -7.383% |  |  |  |  |
| C[C@H](NC(CC(=O)c1ccccc1C(F)(F)F)C(=O)O)c1ccccc1 (stereo partly drawn) [MMV1579778] | 114.059% | -3.315% | -4.896% |  |  |  |  |
| CC(=O)Nc1cc(NS(=O)(=O)c2ccc(Cl)cc2)cc2c(Cl)n[nH]c12 [MMV1579779] | 88.2086% | 1.247% | 30.3469% |  |  |  |  |
| CC(C)n1cnc2c(NCc3ccccc3)nc(NCc3ccccc3)nc21 [MMV1579780] | 34.6202% | 13.6684% | 58.0803% |  |  |  |  |
| CC(Cc1ccccc1)C(=O)Nc1ccc(Cl)cc1C(=O)O (stereo not drawn) [MMV1579781] | 82.6324% | -1.72% | 1.6268% |  |  |  |  |
| Cc1cccc(CC(=O)N[C@H]2CCOC2=O)c1 [MMV1579782] | 167.646% | 1.649% | 1.447% |  |  |  |  |
